Experimental data reported in patent publication EP4455142A1, “NOVEL INHIBITOR OF QPCTL AND/OR QC” (Scenic Immunology B.V., priority 2023, dated 2024).

Assays:
recombinant QC enzyme = target: T1, recombinant QC enzyme (Homo sapiens, UniProt Q16769); assay: Assay 2 - QC potency, fluorescent enzymatic assay (H-Gln-AMC, coupled pGAPase detection); assay type: biochemical; conditions: 1 hour at 37°C
T1 construct: bacterial expression of residues 33-361 of uniprot ID Q16769, fused to a His tag; His tag (cleaved yes); made in house
Description: After scale-up, expression and lysis, protein was purified by Ni-NTA IMAC, dialysed in the presence of Factor Xa, further purified by Ni-NTA reverse IMAC and finally filtrated for size on a Superdex 200 16/60 column. Final protein was concentrated using a spin concentrator at 10 kDa molecular weight cut-off and formulated in 150 mM NaCl, 50 mM Tris-HCl, 50% Glycerol, pH 8.0.
Pyroglutamylation was measured by conversion of glutamine-4-amino-7-methylcoumarine (H-Gln-AMC, Bachem) to pyroglutamyl-AMC, which is subsequently a specific substrate for pyroglutamylaminopeptidase (pGAPase, Qiagen), releasing free AMC which can be fluorescently detected. For a typical inhibition assay, 7.5 µL aliquots of threefold dilutions of test compound in 50 mM Tris pH8 buffer were plated in 384-well plates. 15 µL 20 µM h-Gln-AMC (diluted from a 40 mM stock dissolved in 25 mM HEPES using 50 mM Tris-HCl pH 8.0) was added to each well. Finally, 7.5 µL, 3 ng/µL recombinant QC enzyme was added and the reaction mixture was incubated for 1 hour at 37°C. A 5 minute incubation at 98°C was then performed to denature the QC enzyme and stop the reaction.
25 µL of the pyroglutamylation reaction mixture was transferred into an empty plate and to that, 25 µL of the pGAPase enzyme solution was added. Plates were then incubated for 25 minutes at room temperature before fluorescence readings were taken on an Envision2 plate reader with excitation set at 380 nm and emission at 450 nm.
Controls were taken along containing pyroglutamylated-AMC (Bachem, dissolved at 10 mM in DMSO) instead of H-Gln-AMC to control for pGAPase inhibition.
IC50 values are calculated using non-linear regression analysis with GraphPad Prism software.

pyroglutamylated CD47 = assay: Assay 3 - cell-based potency assay (pyroglutamylation in live cells, total CD47/pE-CD47 dual staining, FACS); parameters: species or system human; conditions: IC50 of CC2C6 signal, KBM7 cells, 72 hours incubation
Description: Cells were spun for 4 minutes at 1500 rpm and washed once with PBS / 0.5% BSA. Cells were spun down again and the supernatant was removed and incubated in 100 uL antibody staining solution (PBS / 0.5% BSA / 0.1 µg/mL DAPI (4',6-diamidino-2-phenylindole, ThermoFisher Scientific) and a mixture of 1:500 FITC-conjugated anti-human CD47 clone 2D3, which recognizes total CD47 irrespective of its pyroglutamylation state, and 1:500 Alexa647-conjugated anti-human CD47 clone CC2C6, which specifically detects pyroglutamylated CD47) for 2 hours at 4°C. Next, the cells were spun down and washed twice with 2 x 150 µL PBS / 0.5% BSA to remove unbound antibody. Cells were again spun down and taken up in 300 µL FACS buffer before analysis on a Celesta FACS machine (BD Biosciences).
KBM7 cells (Kotecki et al., 1999) were infected with lentivirus produced by transfecting pSCNC-LentiCRISPR-QPCTL or pSCNC-LentiCRISPR-CD47 into HEK-293T cells according to standard protocols. After 24 hours incubation, cells were selected with puromycin (Invivogen, 1 µg/mL) for 48 hours. Cells were stained for total CD47 and pE-CD47 and QPCTL k.o. cells were sorted out as negative for pE-CD47, and CD47 k.o. cells as negative for total CD47, using a FACSAria III and FACS Diva software (BD Biosciences).
In order to test compounds for their effect on pyroglutamylation in live cells, 25000 KBM7 cells per well were seeded in a 96-well U-bottom plate in 150 µl IMDM / 10% FCS / 1% Pen / Strep medium and a 10-point 2-fold dilution range of test compounds. After 72 hours incubation at 37°C, 5% COz, cells were stained for total CD47 and pE-CD47 and analysed on a BD Celesta using FACS Diva software (BD Biosciences). Cells gated for DAPI negativity were recorded and the median fluorescence intensity (MFI) of each sample was transformed to linearly scale between the MFI's of wildtype and CD47 knockout cells (in case of the 2D3 antibody) and the wildtype and QPCTL knockout cells (in case of the CC2C6 antibody). ICso's were calculated by 3 parameter logistic regression of the CC2C6 signal vs. compound concentration, where the top of the sigmoidal curve was fixed at 1, using R and the drc package (http://www.r-project.org, https://cran.r-project.org/web/packages/drc/index.html).

[1] = Microsomal stability, rat (RLM); assay type: in vitro ADME; conditions: liver microsomes; SD rat microsomes, 0.5 mg protein/mL, 1 µM test compound
Description: (§1) In order to assess metabolic stability of test compounds, commercially acquired CD-1 mouse liver microsome preparations were incubated in 100 µL at a final concentration of 0.5 mg protein/mL, 1 µM test compound, 0.99% methanol and 0.01% DMSO, after a 10 minute pre-incubation at 37°C and addition of 0.1 volumes 10 U/mL NADPH in 10 mM MgCl2. Reactions were stopped by addition of 300 µL cold acetonitrile containing internal standards at t = 0, 5, 10, 20, 30, and 60 minutes. Samples were submitted to LC-MS/MS analysis subsequently and the slope of linear regression of time versus In(% Remaining concentration) was derived to calculate t½ as t½= In(2) /(-Slope). Then Clint(mic) and Clint(liver) were calculated as follows: CLint(mk) = (0.693)/(In vitro T1/2) · (1)/(mg/mL microsomal protein in reaction system) [formula] CLint(liver) = CLint(mic) · (mg microsomes)/(g liver) · (g liver)/(kg body weight) [formula]
(§2) The same procedure was performed for human microsomes, SD rat microsomes and (beagle) dog microsomes.
Where 45 mg microsomal protein/g liver and 40 g liver/kg rat bodyweight were used as standardized parameters for rat microsomes.

[2] = Microsomal stability, dog (DLM); assay type: in vitro ADME; conditions: liver microsomes; (beagle) dog microsomes, 0.5 mg protein/mL, 1 µM test compound
Description: as §1, §2
Where 45 mg microsomal protein/g liver and 32 g liver/kg dog bodyweight were used as standardized parameters for […].

Pan02 cells = assay: In vivo Pan02 syngeneic mouse model; parameters: species or system C57BL/6 female mice
Description: Anti tumor effects were evaluated in the Pan02, pancreatic adenocarcinoma syngeneic mouse tumor model. For this study 3 × 10^6 Pan02 cells were injected in the right front flank of C57BL/6 female mice. Tumor size was measured and when tumors reached an average size of 80-120 mm^3, treatment was started. Treatment consisted of compound alone, or in combination with the anti PD-L1 antibody (B7-H1). Compound (1) was administered orally at 100 mg/kg once daily and anti-PD-L1 antibody was administered intraperitoneally at 10 mg/kg twice weekly. Tumor progression was monitored by tumor volume measurement using a caliper.

T1 sequence (Q16769 33-361): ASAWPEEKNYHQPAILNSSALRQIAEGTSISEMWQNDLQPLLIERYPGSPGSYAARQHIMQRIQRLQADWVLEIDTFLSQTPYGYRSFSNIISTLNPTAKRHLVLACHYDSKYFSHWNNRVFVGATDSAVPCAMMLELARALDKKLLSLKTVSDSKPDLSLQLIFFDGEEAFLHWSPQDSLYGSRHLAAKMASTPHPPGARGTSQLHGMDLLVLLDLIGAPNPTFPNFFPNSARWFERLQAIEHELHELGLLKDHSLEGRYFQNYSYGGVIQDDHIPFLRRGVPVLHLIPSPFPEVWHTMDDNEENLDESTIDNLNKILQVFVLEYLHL

## O=C1OCC(c2ccc(N3CCCC3)cc2)N1c1ccc2[nH]cnc2c1 (single isomer, unassigned) [(18)-ent2]
Recombinant QC enzyme
  IC50: 31.2 nM
Pyroglutamylated CD47
  IC50: 3490 nM
[1]
  CLint scaled at 1 µM: 1070 mL/min/kg
[2]
  CLint scaled at 1 µM: 32.8 mL/min/kg

## O=C1OC[C@H](c2ccc(-c3cnn(C(F)(F)F)c3)cc2F)N1c1ccc2[nH]cnc2c1 [Compound (1)]
Recombinant QC enzyme
  IC50: 10.3 nM
Pyroglutamylated CD47; Homo sapiens, KBM-7, 72 h
  IC50: 92.1 nM
Pan02 cells; (1) orally 100 mg/kg once daily plus anti-PD-L1 antibody intraperitoneally 10 mg/kg twice weekly
  anti tumor effect (tumor volume), combined with anti-PD-L1 antibody: tumor regression
Pan02 cells; (1) orally 100 mg/kg once daily, by itself
  anti tumor effect (tumor volume), compound alone: tumor growth inhibition

## O=C1OCC(c2ccc(C3CCC(F)(F)CC3)cc2)N1c1ccc2[nH]cnc2c1 (single isomer, unassigned) [(19)-ent2]
Pyroglutamylated CD47
  IC50: 3730 nM
[1]
  CLint scaled at 1 µM: 49.9 mL/min/kg
[2]
  CLint scaled at 1 µM: 21.8 mL/min/kg
